Results published in patent US9910031B2, “Compositions and methods for modulating c-Rel-dependent cytokine production” (Synta Pharmaceuticals Corporation, priority 2003, dated 2018).

Key:
p50 = experiment: ELISA based transcriptional factor-DNA binding activity assay, THP-1 nuclear extracts, p50; format: cell-based, human; settings: IFN-γ/LPS, 500 nm, 3 hrs
Method: Nuclear extracts were prepared from IFN-γ-primed THP-1 cells that had been treated with or without SAC and incubated in the presence or absence of 1 μM Compound 1 or 10 mM ASA. Isolation of nuclear extracts was accomplished by first suspending THP-1 cells in 20 volumes of buffer A containing 10 mM KCl, 10 mM HEPES (pH 7.9), 1 mM MgCl2, 1 mM dithiothreitol (DTT), 0.1% Nonidet p40 (NP-40), and 0.5 mM phenylmethylsulfonyl fluoride (PMSF) and then homogenizing and centrifuging at 10,000 rpm at 4° C. for 5 min. Nuclear pellets were then suspended in buffer C containing 400 mM NaCl, 20 mM HEPES pH 7.9), 15 mM MgCl2, 0.2 mM EDTA, 1 mM DTT, 25% glycerol, 1 mM PMSF, and 10 μg of leupeptin, 20 μg of pepstatin, and 10 μg of antipain per ml, incubated for 30 min at 4° C., and centrifuge at 14,000 rpm for […]. The supernatants were dialyzed against buffer D containing 100 mM NaCl, 20 mM HEPES (pH 7.9), 20% glycerol, 1 mM PMSF, and 1 mM DTT.
To understand the action of Compound 2 in NF-κB binding, several NF-κB family members, p50, c-Rel and p65 were investigated using an ELISA based transcriptional factor-DNA binding activity assay system. […]

Rel-B = experiment: Immunoblot of nuclear Rel-B in THP1 cells; format: cell-based, human; settings: THP1, IFNg+LPS, 100 nM, 6 h
Method: Rel B and p52 are two members of Rel family, which are preferentially complexed with each other. Like p50 and p65, p52 is found in virtually all cell types, whereas c-Rel and Rel B have only been detected in lymphoid tissues. To determine the effect of Compound 2 on p52 and Rel-B nuclear translocation, THP1 cells were stimulated with IFNg+LPS in either the presence or absence of 100 nM Compound 2, and the distribution of p52 and Rel-B was determined by immunoblotting of nuclear at 6 h post-treatment.
THP-1 cells were suspended in 20 volumes of buffer A containing 10 mM KCl, 10 mM HEPES (pH 7.9), 1 mM MgCl2, 1 mM dithiothreitol (DTT), 0.1% Nonidet p40 (NP-40), and 0.5 mM phenylmethylsulfonyl fluoride (PMSF) and homogenized and centrifuged at 10,000 rpm at 4 C for 5 min. Nuclear pellets were then suspended in buffer C containing 400 mM NaCl, 20 mM HEPES 9 pH 7.9), 15 mM MgCl2, 0.2 mM EDTA, 1 mM DTT, 25% glycerol, 1 mM PMSF, and 10 ug of leupeptin, 20 ug of pepstatin, and 10 ug/ml antipain, incubated for 30 min at 4 C, and centrifuged at 14,000 rpm for 20 min. The supernatants were dialyzed against buffer D containing 100 mM NaCl, 20 mM HEPES (pH 7.9), 20% glycerol, 1 mM PMSF, and 1 mM DTT.
The 10% SDS Polyacrylamide gels (Invitrogen) were transferred to Pure Nitrocellulose membrane (BioRed, Hercules, Calif.). […]

## Cc1cccc(C=NNc2cc(N3CCOCC3)nc(OCCc3ccccn3)n2)c1 [Compound 2, N-(3-methyl-benzylidene)-N′-[6-morpholin-4-yl-2-(2-pyridin-2-yl-ethoxy)-pyrimidin-4-yl]-hydrazine]
p50
  binding activity of p50: slightly decreased
Rel-B
  nuclear Rel-B (FIG. 11): slightly increased
